Reference: patent publication US6476189B1, “Antibacterial peptides and antibacterial agents containing such peptides as an effective ingredient” (National Institute of Agrobiological Sciences, priority 1998, dated 2002)
Values after ≈ are worked out from the molar mass of the structure shown. Residues, ends and D or L forms follow the SMILES beside them.

Legend:
Assay type in all cases: cell-based
Staphylococcus aureus = test system: Staphylococcus aureus
Procedure: (§1) Minimum Inhibitory Concentration (MIC) of these antibacterial peptides (1) to (5) against Staphylococcus aureus, methicillin resistant Staphylococcus aureus (MRSA), Escherichia coli and Pseudomonas aeruginosa was determined.

Pseudomonas aeruginosa = test system: Pseudomonas aeruginosa
Procedure: as §1

[1] = test system: methicillin resistant Staphylococcus aureus (MRSA)
Procedure: as §1

MIC S. aureus (Staphylococcus aureus) [µg/mL] | MIC P. aeruginosa (Pseudomonas aeruginosa) [µg/mL] | MIC MRSA [1] [µg/mL] | SMILES
5 (≈ 4.56 µM) | >15 |  | CC[C@H](C)[C@H](NC(=O)[C@H](C)NC(=O)[C@H](CC(C)C)NC(=O)[C@H](CCCNC(=N)N)NC(=O)[C@H](CC(C)C)NC(=O)[C@H](C)N)C(=O)N[C@@H](CCCNC(=N)N)C(=O)N[C@@H](CCCCN)C(=O)N[C@@H](CCCNC(=N)N)C(N)=O [present peptide (1), Ala-Leu-Arg-Leu-Ala-Ile-Arg-Lys-Arg-NH2] (H-ALRLAIRKR-NH2; N-terminus assumed)
4 (≈ 3.8 µM) | 4 (≈ 3.8 µM) | 40 (≈ 38 µM) | CC[C@H](C)[C@H](NC(=O)[C@H](C)NC(=O)[C@H](CC(C)C)NC(=O)[C@H](CC(C)C)NC(=O)[C@H](CC(C)C)NC(=O)[C@H](C)N)C(=O)N[C@@H](CCCNC(=N)N)C(=O)N[C@@H](CCCCN)C(=O)N[C@@H](CCCNC(=N)N)C(N)=O [present peptide (2), Ala-Leu-Leu-Leu-Ala-Ile-Arg-Lys-Arg-NH2] (H-ALLLAIRKR-NH2; N-terminus assumed)
3 (≈ 2.67 µM) | 4 (≈ 3.55 µM) | 25 (≈ 22.2 µM) | CC[C@H](C)[C@H](NC(=O)[C@H](C)NC(=O)[C@H](CC(C)C)NC(=O)[C@H](CC(C)C)NC(=O)[C@H](Cc1c[nH]c2ccccc12)NC(=O)[C@H](C)N)C(=O)N[C@@H](CCCNC(=N)N)C(=O)N[C@@H](CCCCN)C(=O)N[C@@H](CCCNC(=N)N)C(N)=O [present peptide (3), Ala-Trp-Leu-Leu-Ala-Ile-Arg-Lys-Arg-NH2] (H-AWLLAIRKR-NH2; N-terminus assumed)
2 (≈ 1.81 µM) | 4 (≈ 3.63 µM) | 30 (≈ 27.2 µM) | CC[C@H](C)[C@H](NC(=O)[C@H](C)NC(=O)[C@H](CC(C)C)NC(=O)[C@H](Cc1ccc(O)cc1)NC(=O)[C@H](CC(C)C)NC(=O)[C@H](C)N)C(=O)N[C@@H](CCCNC(=N)N)C(=O)N[C@@H](CCCCN)C(=O)N[C@@H](CCCNC(=N)N)C(N)=O [present peptide (4), Ala-Leu-Tyr-Leu-Ala-Ile-Arg-Lys-Arg-NH2]
4 (≈ 3.55 µM) | 10 (≈ 8.89 µM) | 40 (≈ 35.5 µM) | CC[C@H](C)[C@H](NC(=O)[C@H](C)NC(=O)[C@H](CC(C)C)NC(=O)[C@H](Cc1c[nH]c2ccccc12)NC(=O)[C@H](CC(C)C)NC(=O)[C@H](C)N)C(=O)N[C@@H](CCCNC(=N)N)C(=O)N[C@@H](CCCCN)C(=O)N[C@@H](CCCNC(=N)N)C(N)=O [present peptide (5), Ala-Leu-Trp-Leu-Ala-Ile-Arg-Lys-Arg-NH2] (H-ALWLAIRKR-NH2; N-terminus assumed)
